In patent publication US20230181580A1, “TREATMENT OF PROLIFERATIVE DISEASES OF THE CNS” (AUCENTRA THERAPEUTICS PTY LTD, priority 2020, published 2023):

How the values were obtained:
CDK6/D3 = CDK6/D3 (Homo sapiens, UniProt Q00534); assay: CDK kinase inhibition assay (radiometric / ADP Glo); type: biochemical
Description: (§1) Eurofins Pharma Discovery or Reaction Biology Corporation Kinase Profiler services were used to measure inhibition of CDKs and other kinases by radiometric assay (RIA). Inhibition of CDK4/Cyclin D1, CDK6/Cyclin D3 and CDK9/T1 were also determined in-house using ADP Glo Kinase assays (Promega Corporation, Madison Wis., United States of America). Briefly, the kinase reaction for CDK4/Cyclin D1 and CDK6/Cyclin D3 was performed with kinase reaction buffer ([…] Tris base pH 7.5, 20 mM MgCl2, 0.4 mM DTT), 0.1 mg/ml BSA and RB-CTF substrate (retinoblastoma protein1 C-terminal fraction). For CDK9/CyclinT1, the kinase reaction was performed with standard assay buffer and Kinase Dilution Buffer and RBER-IRStide substrate. Serial dilutions of 1:3 were prepared for test compounds for 10 concentrations (from 10 μM to 0.5 nM). The kinase reactions were started by addition of ATP, incubated for 40 min at 37° C. and then stopped by adding 10 μL of ADP Glo reagent. After incubation at room temperature (RT) in the dark for 40 min, 20 μL of kinase detection reagent was added per well and incubated for 40 min. Luminescence was measured using an EnVision Multilabel plate reader (PerkinElmer, Buckinghamshire, United Kingdom). Positive and negative controls were performed in the presence and absence of CDK kinases, respectively. Half-maximal inhibition (IC50) values were calculated using a 4-parameter logistic non-linear regression model with Graphpad prism (Version 6.0). Apparent inhibition constants (Ki) values were calculated from Km (ATP) and IC50 values for the respective kinases.

CDK9/T1 = CDK9/T1 (Homo sapiens, UniProt P50750); assay: as above; type: biochemical
Chain of CDK9/T1 (P50750 whole entry): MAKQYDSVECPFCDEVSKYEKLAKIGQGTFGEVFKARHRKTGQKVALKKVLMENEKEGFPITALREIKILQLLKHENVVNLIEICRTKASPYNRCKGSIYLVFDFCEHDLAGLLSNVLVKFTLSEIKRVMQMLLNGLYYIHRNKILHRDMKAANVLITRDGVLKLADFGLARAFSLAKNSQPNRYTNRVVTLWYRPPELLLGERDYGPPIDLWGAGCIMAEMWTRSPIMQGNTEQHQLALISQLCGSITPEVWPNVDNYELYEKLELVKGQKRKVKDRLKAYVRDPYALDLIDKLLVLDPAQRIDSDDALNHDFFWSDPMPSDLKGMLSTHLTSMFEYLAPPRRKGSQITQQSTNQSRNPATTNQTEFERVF
Chain of CDK9/T1 (O60563 whole entry partner): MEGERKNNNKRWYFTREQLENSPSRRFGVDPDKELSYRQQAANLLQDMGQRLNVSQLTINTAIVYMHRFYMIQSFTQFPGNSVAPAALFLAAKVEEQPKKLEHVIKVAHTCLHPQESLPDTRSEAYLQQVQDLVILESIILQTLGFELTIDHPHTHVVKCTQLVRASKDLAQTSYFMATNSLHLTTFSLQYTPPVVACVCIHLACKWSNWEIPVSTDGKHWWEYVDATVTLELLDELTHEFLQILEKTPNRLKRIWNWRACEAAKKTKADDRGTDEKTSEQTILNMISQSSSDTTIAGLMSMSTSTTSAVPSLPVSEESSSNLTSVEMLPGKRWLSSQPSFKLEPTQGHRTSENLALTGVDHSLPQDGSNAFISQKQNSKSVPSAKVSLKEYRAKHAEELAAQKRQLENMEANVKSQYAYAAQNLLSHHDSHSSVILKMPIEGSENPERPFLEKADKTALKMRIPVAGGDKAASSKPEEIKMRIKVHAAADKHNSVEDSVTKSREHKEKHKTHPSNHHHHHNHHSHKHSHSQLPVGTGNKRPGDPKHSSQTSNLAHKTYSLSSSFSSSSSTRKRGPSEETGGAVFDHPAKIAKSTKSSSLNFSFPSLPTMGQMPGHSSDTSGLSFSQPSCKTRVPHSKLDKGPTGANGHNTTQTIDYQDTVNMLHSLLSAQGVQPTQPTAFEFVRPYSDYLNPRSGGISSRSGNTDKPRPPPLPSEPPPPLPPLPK
Description: as §1

CDK1/B = CDK1/B (Homo sapiens, UniProt P06493); assay: as above; type: biochemical
Chain of CDK1/B (P06493 whole entry): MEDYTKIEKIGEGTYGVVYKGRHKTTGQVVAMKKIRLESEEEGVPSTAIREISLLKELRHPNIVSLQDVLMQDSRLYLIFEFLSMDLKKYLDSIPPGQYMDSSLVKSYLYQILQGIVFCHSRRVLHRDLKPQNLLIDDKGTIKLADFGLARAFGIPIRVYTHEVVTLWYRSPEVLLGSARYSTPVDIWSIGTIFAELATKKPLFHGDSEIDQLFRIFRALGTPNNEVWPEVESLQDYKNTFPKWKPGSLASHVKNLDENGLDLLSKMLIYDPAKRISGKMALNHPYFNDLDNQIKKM
Chain of CDK1/B (P14635 whole entry partner): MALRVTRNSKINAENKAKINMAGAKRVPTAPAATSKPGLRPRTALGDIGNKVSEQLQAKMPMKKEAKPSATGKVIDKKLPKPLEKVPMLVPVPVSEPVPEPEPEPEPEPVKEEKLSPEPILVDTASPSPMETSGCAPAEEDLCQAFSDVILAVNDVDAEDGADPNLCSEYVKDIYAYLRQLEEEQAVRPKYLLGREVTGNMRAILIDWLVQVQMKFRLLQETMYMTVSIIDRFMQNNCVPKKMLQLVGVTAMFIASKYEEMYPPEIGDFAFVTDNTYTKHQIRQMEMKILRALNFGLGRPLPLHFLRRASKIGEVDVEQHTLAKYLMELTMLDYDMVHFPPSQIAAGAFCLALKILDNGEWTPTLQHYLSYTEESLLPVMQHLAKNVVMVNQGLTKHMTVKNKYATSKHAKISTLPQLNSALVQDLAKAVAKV
Description: as §1

CDK7/H = CDK7/H (Homo sapiens, UniProt P50613); assay: as above; type: biochemical
Chain of CDK7/H (P50613 whole entry): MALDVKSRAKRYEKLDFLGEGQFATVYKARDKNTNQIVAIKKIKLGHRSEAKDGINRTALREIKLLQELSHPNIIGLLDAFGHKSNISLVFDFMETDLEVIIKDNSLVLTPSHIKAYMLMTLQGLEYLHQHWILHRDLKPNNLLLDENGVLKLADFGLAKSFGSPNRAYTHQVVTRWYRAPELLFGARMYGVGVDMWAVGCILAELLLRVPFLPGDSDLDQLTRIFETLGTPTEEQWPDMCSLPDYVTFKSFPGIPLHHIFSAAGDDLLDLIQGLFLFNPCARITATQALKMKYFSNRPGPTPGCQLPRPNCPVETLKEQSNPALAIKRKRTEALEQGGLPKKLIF
Chain of CDK7/H (P51946 whole entry partner): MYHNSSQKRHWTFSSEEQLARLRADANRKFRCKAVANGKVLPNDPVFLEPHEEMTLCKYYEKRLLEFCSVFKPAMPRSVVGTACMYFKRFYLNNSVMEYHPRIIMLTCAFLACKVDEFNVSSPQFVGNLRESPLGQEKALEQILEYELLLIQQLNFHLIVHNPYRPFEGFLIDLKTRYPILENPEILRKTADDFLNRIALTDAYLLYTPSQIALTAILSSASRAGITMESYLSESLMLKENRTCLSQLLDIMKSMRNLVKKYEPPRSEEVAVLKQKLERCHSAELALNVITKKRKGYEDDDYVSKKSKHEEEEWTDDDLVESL
Chain of CDK7/H (P51948 whole entry partner): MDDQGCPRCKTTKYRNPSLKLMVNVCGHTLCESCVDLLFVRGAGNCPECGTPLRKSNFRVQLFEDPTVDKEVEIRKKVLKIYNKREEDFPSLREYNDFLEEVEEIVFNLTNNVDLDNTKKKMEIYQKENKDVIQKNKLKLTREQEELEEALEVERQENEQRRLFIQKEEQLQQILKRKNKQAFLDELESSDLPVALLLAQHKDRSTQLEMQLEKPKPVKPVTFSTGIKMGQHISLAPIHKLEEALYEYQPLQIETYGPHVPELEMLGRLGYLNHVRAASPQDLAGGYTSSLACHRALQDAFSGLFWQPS
Description: as §1

CDK4/D1 = CDK4/D1 (Homo sapiens, UniProt P11802); assay: as above; type: biochemical
Chain of CDK4/D1 (P11802 whole entry): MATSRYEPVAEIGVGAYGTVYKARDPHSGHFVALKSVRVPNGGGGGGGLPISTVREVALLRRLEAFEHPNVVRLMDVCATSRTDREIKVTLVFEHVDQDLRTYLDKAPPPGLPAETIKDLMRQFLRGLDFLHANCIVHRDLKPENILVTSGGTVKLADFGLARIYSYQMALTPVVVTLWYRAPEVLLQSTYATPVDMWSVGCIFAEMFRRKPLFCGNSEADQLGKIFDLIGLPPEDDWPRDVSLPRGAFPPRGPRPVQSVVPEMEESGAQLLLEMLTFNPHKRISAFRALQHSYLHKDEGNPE
Chain of CDK4/D1 (P24385 whole entry partner): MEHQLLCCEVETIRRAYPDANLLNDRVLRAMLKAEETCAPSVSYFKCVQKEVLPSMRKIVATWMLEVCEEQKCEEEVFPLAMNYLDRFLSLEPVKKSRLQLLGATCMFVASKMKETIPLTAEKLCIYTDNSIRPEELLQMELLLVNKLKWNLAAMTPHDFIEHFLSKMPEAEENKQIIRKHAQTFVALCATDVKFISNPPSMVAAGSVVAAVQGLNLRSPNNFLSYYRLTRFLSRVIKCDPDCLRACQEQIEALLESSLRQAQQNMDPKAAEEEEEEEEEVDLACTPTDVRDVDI
Description: as §1

CDK2/A = CDK2/A (Homo sapiens, UniProt P24941); assay: as above; type: biochemical
Description: as §1

MB453 = assay: MTT proliferation assay, breast; type: cell-based; conditions: 72 h, read-out: Antiproliferative activity GI50 MB453
Excerpt: (§2) Representative compounds from Example 1, were subjected to standard MTT (3-(4,5-dimethylthiazol-2-yl)-2,5-diphenyltetrazolium bromide) and resazurin assays on solid tumour cell lines (including GBM cell lines) and leukemia cell lines, respectively, as previously reported (Wang S et al., J Med Chem 47:1662-1675, 2004; and Diab S. et al. CheMedChem 9:962-972, 2014).

MV4-11 = assay: Resazurin proliferation assay, leukaemia cell line; type: cell-based; conditions: Homo sapiens, 72 h, read-out: Antiproliferative activity GI50 MV4-11
Excerpt: as §2

Colo205 = assay: MTT proliferation assay, colorectal; type: cell-based; conditions: Homo sapiens, COLO 205, 72 h, read-out: Antiproliferative activity GI50 Colo205
Excerpt: as §2

T98G = assay: MTT proliferation assay, glioblastoma; type: cell-based; conditions: Homo sapiens, 72 h, read-out: Antiproliferative activity GI50 T98G
Description: (§3) All three GBM cell lines used in this example, namely U87, U251 and T98G, were cultured in Eagle's Minimum Essential Medium (EMEM) with 10% fetal bovine serum in 75 cm^2 flasks at 37° C. and 5% CO2. All cell lines were confirmed to be mycoplasma-free prior to any experiment setup.
as §2

U251 = assay: MTT proliferation assay, glioblastoma; type: cell-based; conditions: Homo sapiens, U-251, 72 h, read-out: Antiproliferative activity GI50 U251
Description: as §3, §2

U87 = assay: MTT proliferation assay, glioblastoma; type: cell-based; conditions: Homo sapiens, U-87 MG, 72 h, read-out: Antiproliferative activity GI50 U87
Description: as §3, §2

H460 = assay: MTT proliferation assay, lung; type: cell-based; conditions: Homo sapiens, NCI-H460, 72 h, read-out: Antiproliferative activity GI50 H460
Excerpt: as §2

U87 xenografted mice = assay: Subcutaneous U87 xenograft, compound 2 and TMZ study; type: in vivo; conditions: 25 mg/kg PO daily, single agent and with TMZ
Excerpt: (§4) Compound 1 and compound 2 were also investigated for in vivo antitumour activity in subcutaneous xenograft models. Briefly, U87 GBM cells were harvested and resuspended in a 1:1 mixture of serum-free media and matrigel, and 5×10^6 cells injected subcutaneously into the rear flank of 5-6-week-old CD1 nu/nu female mice. When the mean tumour volume reached 150-200 mm^3, animals were randomised to treatment groups (n=10 per group) and treated orally with vehicle (0.5% carboxymethyl cellulose in water), compound 1 or compound 2 daily for 21 days with the doses shown in FIGS. 5A and 5B. Mice were observed daily for signs of toxicity and weight loss, and tumour volume measured every other day.
In another study, U87 xenografted mice (n=8 per group) were treated with: (1) vehicle, (2) compound 2 (25 mg/kg, PO, daily), (3 and 4) TMZ (5 mg/kg or 50 mg/kg, PO, 5 day/week), (5) pre-treatment with compound 2 (25 mg/kg, PO, daily ×10), followed by TMZ (5 mg/kg, PO, 5 day/week ×2), (6) pre-treatment with TMZ (5 mg/kg, PO, 5 day/week ×2) followed by compound 2 (25 mg/kg, PO, daily ×10), and (7) co-treatment with compound 2 and TMZ, respectively. All treatment groups were completed by day 21, which were followed by a 7-day drug holiday before the second cycle of treatment started from day 29 (FIG. 5B).

U87 GBM cells [1] = assay: Orthotopic U87 GBM xenograft; type: in vivo, NSG mice
Description: In vivo anti-tumour efficacy of compound 1 and compound 2 was also investigated in GBM orthotopic mouse xenograft models. For example, compound 2 was administered orally once daily for 21 days to NSG mice (n=8) (The Jackson Laboratory, Ben Harbor, Me., United States of America) orthotopically engrafted with the U87 GBM cells per each treatment cohort. TMZ was given orally once daily for 5 days and was used as a positive control. The disease burden was measured by a non-invasive bioluminescent whole-body imaging technique.

M229 = assay: MTT proliferation assay, melanoma; type: cell-based; conditions: 72 h, read-out: Antiproliferative activity GI50 M229
Excerpt: as §2

A2780 = assay: MTT proliferation assay, ovarian; type: cell-based; conditions: Homo sapiens, 72 h, read-out: Antiproliferative activity GI50 A2780
Excerpt: as §2

LNCap = assay: MTT proliferation assay, prostate; type: cell-based; conditions: Homo sapiens, 72 h, read-out: Antiproliferative activity GI50 LNCap
Excerpt: as §2

U87 GBM cells [2] = assay: Subcutaneous U87 GBM xenograft, single agents; type: in vivo
Excerpt: as §4

PANC1 = assay: MTT proliferation assay, pancreas; type: cell-based; conditions: Homo sapiens, PANC-1, 72 h, read-out: Antiproliferative activity GI50 PANC1
Excerpt: as §2

Chain of CDK6/D3 (Q00534 whole entry): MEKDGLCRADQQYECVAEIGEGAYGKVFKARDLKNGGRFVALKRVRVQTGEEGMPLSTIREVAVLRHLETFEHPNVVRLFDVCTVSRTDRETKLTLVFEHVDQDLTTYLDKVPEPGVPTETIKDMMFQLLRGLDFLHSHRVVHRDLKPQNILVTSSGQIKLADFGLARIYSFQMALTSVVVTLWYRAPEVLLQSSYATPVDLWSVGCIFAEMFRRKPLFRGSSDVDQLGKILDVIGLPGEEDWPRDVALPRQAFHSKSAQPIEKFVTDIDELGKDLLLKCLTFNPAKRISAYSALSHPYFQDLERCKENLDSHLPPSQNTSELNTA
Chain of CDK6/D3 (P30281 whole entry partner): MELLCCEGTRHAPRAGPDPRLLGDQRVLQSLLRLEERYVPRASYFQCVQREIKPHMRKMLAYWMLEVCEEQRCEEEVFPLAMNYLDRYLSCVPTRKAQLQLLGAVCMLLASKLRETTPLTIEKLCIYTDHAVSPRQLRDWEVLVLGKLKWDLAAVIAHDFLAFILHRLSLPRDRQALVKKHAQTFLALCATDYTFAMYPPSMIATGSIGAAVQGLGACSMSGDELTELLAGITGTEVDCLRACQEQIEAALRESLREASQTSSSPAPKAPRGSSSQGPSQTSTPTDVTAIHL

Row | SMILES | Ki (CDK6/D3) [nM] | Ki (CDK9/T1) [nM] | Ki (CDK1/B) [nM] | Ki (CDK7/H) [nM] | Ki (CDK4/D1) [nM] | Ki (CDK2/A) [nM] | GI50 (MB453) [nM] | GI50 (MV4-11) [nM] | further results
1 | Cc1nc(NC2CCCC2)sc1-c1ccnc(Nc2ccc(N3CCC(N)CC3)cn2)n1 [Compound 8, 5-(2-((5-(4-aminopiperidin-1-yl)pyridin-2-yl)amino)pyrimidin-4-yl)-N-cyclopentyl-4-methylthiazol-2-amine] | 8 | 508 | > 1000 | 282 | 1 | 278 | 100 | 30 | –
2 | CCN1CCN(Cc2ccc(Nc3nccc(-c4sc(NC5CCCC5)nc4C)n3)nc2)CC1 [Compound 6, N-cyclopentyl-5-(2-((5-((4-ethylpiperazin-1-yl)methyl)pyridin-2-yl)amino)pyrimidin-4-yl)-4-methylthiazol-2-amine] | 9 | > 1000 | > 1000 | 630 | 6 | 416 | 70 | 20 | GI50 (Colo205): 4380 nM
3 | Cc1nc(NC2CCCC2)sc1-c1ccnc(Nc2ccc(N3CCNCC3)cn2)n1 [Compound 3, N-cyclopentyl-4-methyl-5-(2-((5-(piperazin-1-yl)pyridin-2-yl)amino)pyrimidin-4-yl)thiazol-2-amine] | 34 | 220 | > 1000 | > 1000 | 1 | > 1000 | 70 | 20 | –
4 | Cc1nc(NC2CCCC2)sc1-c1nc(Nc2ccc(N3CCOCC3)cn2)ncc1F [Compound 9, N-cyclopentyl-5-(5-fluoro-2-((5-morpholinopyridin-2-yl)amino)pyrimidin-4-yl)-4-methylthiazol-2-amine] | 20 | > 1000 | > 1000 | > 1000 | 6 | 104 | 1450 | 290 | –
5 | CCN1CCN(c2ccc(Nc3nccc(-c4sc(NC5CCCC5)nc4C)n3)nc2)CC1 [Compound 4, N-cyclopentyl-5-(2-((5-(4-ethylpiperazin-1-yl)pyridin-2-yl)amino)pyrimidin-4-yl)-4-methylthiazol-2-amine] | 11 | 141 | > 1000 | – | 2 | 355 | 290 | 10 | –
6 | CNc1nc(C)c(-c2nc(Nc3ccc(N4CCC(N)CC4)cn3)ncc2F)s1 [Compound 7, 5-(2-((5-(4-aminopiperidin-1-yl)pyridin-2-yl)amino)-5-fluoropyrimidin-4-yl)-N,4-dimethylthiazol-2-amine] | 32 | > 1000 | > 1000 | > 1000 | 3 | 206 | 360 | 80 | –
7 | CCN1CCN(Cc2ccc(Nc3ncc(F)c(-c4sc(NC5CCCC5)nc4C)n3)nc2)CC1 [Compound 2, N-cyclopentyl-5-(2-((5-((4-ethylpiperazin-1-yl)methyl)pyridin-2-yl)amino)-5-fluoropyrimidin-4-yl)-4-methylthiazol-2-amine] | 3 | > 1000 | > 1000 | – | 0.2 | 620 | 620 | 10 | GI50 (T98G): 4180 nM; GI50 (U251): 5090 nM; GI50 (U87): 2170 nM; GI50 (H460): 410 nM; toxicity (U87 xenografted mice): without any overt toxicity; anti-tumour efficacy (U87 xenografted mice; p<0.001 vs vehicle): significant anti-tumour efficacy both as a single agent and in combination with TMZ; inhibition in tumour growth (TGI) (U87 GBM cells [1]; day 21, oral once daily for 21 days, vs vehicle, p<0.001): 81.4%; increase in life span ratio (ILS) (U87 GBM cells [1]; vs vehicle control, ILS=(DaysT−DaysC)/DaysC): 154.8%; GI50 (M229): 830 nM; GI50 (A2780): 40 nM; GI50 (Colo205): 1550 nM; GI50 (LNCap): 280 nM; T/C (U87 GBM cells [2]; day 21, oral daily for 21 days, vs vehicle, p<0.001): 6%; tumour growth compared to vehicle treatment (U87 GBM cells [2]; oral daily for 21 days): markedly reduced tumour growth; toxicity (U87 GBM cells [2]; oral daily for 21 days, observed daily for signs of toxicity and weight loss): without any overt toxicity; GI50 (PANC1): 1210 nM
8 | CNc1nc(C)c(-c2nc(Nc3ccc(N4CCN(C(C)=O)CC4)cn3)ncc2C#N)s1 [Compound 5, 2-((5-(4-acetylpiperazin-1-yl)pyridin-2-yl)amino)-4-(4-methyl-2-(methylamino)thiazol-5-yl)pyrimidine-5-carbonitrile] | 30 | > 1000 | > 1000 | > 1000 | 4 | > 1000 | 810 | 170 | –
